In brackets after ≈: the same amount, converted by molar mass. Like-named read-outs stand apart in the source and are kept apart here.
Tests used:
adenosine deaminase = target: T1, adenosine deaminase (Bos taurus, UniProt P56658); experiment: Adenosine deaminase resistance (remaining compound measured by HPLC); conditions: for Percent remainder 0 minute / Percent remainder 30 minutes: 5 mM compound in 0.05 M Tris-HCl buffer (pH 7.2), adenosine deaminase (calf intestine), 25°C
T1 sequence (P56658 1-363): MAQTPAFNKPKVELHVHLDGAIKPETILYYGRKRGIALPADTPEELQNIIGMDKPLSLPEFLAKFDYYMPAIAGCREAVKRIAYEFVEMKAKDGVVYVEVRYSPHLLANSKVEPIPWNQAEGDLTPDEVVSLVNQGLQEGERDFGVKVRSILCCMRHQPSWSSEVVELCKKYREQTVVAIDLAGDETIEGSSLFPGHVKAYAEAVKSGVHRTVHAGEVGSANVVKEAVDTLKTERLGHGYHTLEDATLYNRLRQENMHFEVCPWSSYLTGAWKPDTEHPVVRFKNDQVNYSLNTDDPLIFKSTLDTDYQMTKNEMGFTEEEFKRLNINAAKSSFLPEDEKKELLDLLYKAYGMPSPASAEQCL

[1] = test system: Vesicular Stomatitis Virus (VSV); experiment: microbe, parasite or virus in culture; assay type: cell-based; conditions: 36 h
parainfulenza virus = experiment: Antiviral activity against parainfluenza virus in Vero cells (minimum virus growth inhibitory concentration); assay type: cell-based
Vero cells = experiment: Cytotoxicity in Vero cells (minimum cytotoxicity concentration)

SMILES	Percent remainder 0 minute (adenosine deaminase)	Percent remainder 30 minutes (adenosine deaminase)	MIC [1]	MIC (parainfulenza virus; minimum virus growth inhibitory concentration, parainfulenza virus, Vero cells, read-out: MIC)	MCC (Vero cells)	MIC (parainfulenza virus)	inactivated (adenosine deaminase; summary of the adenosine deaminase resistance test (conditions of Table 3))
CCC(O)C1=C[C@@H](n2cnc3c(N)ncnc32)[C@H](O)[C@@H]1O (stereo partly shown) [6'-C-Ethylneplanocin A, 6'-C-ethylneplanocin A]	100%	94%					
C#CC(O)C1=C[C@@H](n2cnc3c(N)ncnc32)[C@H](O)[C@@H]1O (stereo partly shown) [6'-C-Ethynylneplanocin A, 6'-C-ethynylneplanocin A]	100%	96%	0.1 µg/mL (≈ 0.348 µM)				
CC(O)C1=C[C@@H](n2cnc3c(N)ncnc32)[C@H](O)[C@@H]1O (stereo partly shown) [6'-C-Methylneplanocin A, 6'-C-methylneplanocin A]	100%	92%	0.1 µg/mL (≈ 0.361 µM)	0.1 µg/mL (≈ 0.361 µM)	≧400 µg/mℓ		
Nc1ncnc2c1ncn2[C@@H]1C=C(CO)[C@@H](O)[C@H]1O [Neplanocin A]	100%	0%	3.9 µg/mL (≈ 14.8 µM)		≧40 µg/mℓ	0.1 µg/mL (≈ 0.38 µM)	100%

From patent publication EP0477700A1, “6'-C-alkyl- or alkynyl-neplanocin A, and its preparation process and use” (priority 1990, dated 1992)
